# Results reported in ChEMBL document CHEMBL5352410, “Discovery of novel selenium-containing azole derivatives as antifungal agents by exploiting the hydrophobic cleft of CYP51” (Eur J Med Chem, 2022).
# Experiments:
# Candida albicans [1] = experiment: Antifungal activity against Candida albicans sc5314 by CLSI based broth microdilution method; format: functional
# Candida albicans [2] = experiment: Antifungal activity against Candida albicans by CLSI based broth microdilution method; format: functional
# Nakaseomyces glabratus = experiment: Antifungal activity against Candida glabrata by CLSI based broth microdilution method; format: functional
# Candida parapsilosis = experiment: Antifungal activity against Candida parapsilosis by CLSI based broth microdilution method; format: functional; details: Lodderomyces parapsilosis
# Pichia kudriavzevii = experiment: Antifungal activity against Pichia kudriavzevii by CLSI based broth microdilution method; format: functional
# [Candida] zeylanoides = Antifungal activity against Candida zeylanoides by CLSI based broth microdilution method; format: functional; details: Dujonia zeylanoides
# Cryptococcus neoformans = experiment: Antifungal activity against Cryptococcus neoformans by CLSI based broth microdilution method; format: functional
# Aspergillus fumigatus = experiment: Antifungal activity against Aspergillus fumigatus by CLSI based broth microdilution method; format: functional
# Candida albicans [3] = experiment: Antifungal activity against FCZ-resistant Candida albicans CaR by CLSI based broth microdilution method; format: functional
# Candida albicans [4] = experiment: Antifungal activity against FCZ-resistant Candida albicans 17# by CLSI based broth microdilution method; format: functional
# Candida albicans [5] = experiment: Antifungal activity against FCZ-resistant Candida albicans 632 by CLSI based broth microdilution method; format: functional
# Candida albicans [6] = experiment: Antifungal activity against FCZ-resistant Candida albicans 901 by CLSI based broth microdilution method; format: functional
# Candida albicans [7] = experiment: Antifungal activity against FCZ-resistant Candida albicans 904 by CLSI based broth microdilution method; format: functional
# Candida albicans [8] = experiment: Fungicidal activity against Candida albicans; format: functional
# Candida albicans [9] = experiment: Fungicidal activity against Candida albicans sc5314; format: functional
# Candida albicans [10] = experiment: Fungicidal activity against FCZ-resistant Candida albicans CaR; format: functional
# Candida albicans [11] = experiment: Fungicidal activity against FCZ-resistant Candida albicans 17#; format: functional
# Candida albicans [12] = experiment: Fungicidal activity against FCZ-resistant Candida albicans 632; format: functional
# Candida albicans [13] = experiment: Fungicidal activity against FCZ-resistant Candida albicans 901; format: functional
# Candida albicans [14] = experiment: Fungicidal activity against FCZ-resistant Candida albicans 904; format: functional
# [15] = Cytotoxicity against human HL-60 cells by MTT assay; format: toxicity, cell-based
# Candida albicans [16] = experiment: Antibiofilm activity against Candida albicans SC5314 assessed as sessile minimum inhibitory concentration measured after 1.5 hrs by XTT assay; format: functional
# Candida albicans [17] = experiment: Antibiofilm activity against Candida albicans SC5314 assessed as sessile minimum inhibitory concentration measured after 3 hrs by XTT assay; format: functional
# Candida albicans [18] = experiment: Antibiofilm activity against Candida albicans SC5314 assessed as sessile minimum inhibitory concentration measured after 6 hrs by XTT assay; format: functional
# Candida albicans [19] = experiment: Antibiofilm activity against Candida albicans SC5314 assessed as sessile minimum inhibitory concentration measured after 24 hrs by XTT assay; format: functional
# Candida albicans [20] = experiment: Antibiofilm activity against Candida albicans CPCC400616 assessed as sessile minimum inhibitory concentration measured after 1.5 hrs by XTT assay; format: functional
# Candida albicans [21] = experiment: Antibiofilm activity against Candida albicans CPCC400616 assessed as sessile minimum inhibitory concentration measured after 3 hrs by XTT assay; format: functional
# Candida albicans [22] = experiment: Antibiofilm activity against Candida albicans CPCC400616 assessed as sessile minimum inhibitory concentration measured after 6 hrs by XTT assay; format: functional
# Candida albicans [23] = experiment: Antibiofilm activity against Candida albicans CPCC400616 assessed as sessile minimum inhibitory concentration measured after 24 hrs by XTT assay; format: functional
# [24] = Cytotoxicity against human MDA-MB-231 cells by MTT assay; format: toxicity, cell-based
# [25] = Cytotoxicity against human PC-3 cells by MTT assay; format: toxicity, cell-based
# [26] = Metabolic stability in mouse liver microsome assessed as half life; format: ADME; details: liver microsomes
# [27] = Metabolic stability in mouse liver microsome assessed as clearance; format: ADME; details: liver microsomes, read-out: CLH
compound,measurement,setting,value
Clc1ccc(C(Cn2ccnc2)[Se]C(Cn2ccnc2)c2ccc(Cl)cc2Cl)c(Cl)c1 (centres undefined),MIC,Candida albicans [1],2 mg/L
same,MIC,Candida albicans [2],16 mg/L
same,MIC,Nakaseomyces glabratus,64 mg/L
same,MIC,Candida parapsilosis,64 mg/L
same,MIC,Pichia kudriavzevii,128 mg/L
same,MIC,[Candida] zeylanoides,8 mg/L
same,MIC,Cryptococcus neoformans,64 mg/L
same,MIC,Aspergillus fumigatus,> 64 mg/L
same,MIC,Candida albicans [3],2 mg/L
same,MIC,Candida albicans [4],2 mg/L
same,MIC,Candida albicans [5],16 mg/L
same,MIC,Candida albicans [6],64 mg/L
same,MIC,Candida albicans [7],16 mg/L
same,MFC,Candida albicans [8],> 64 mg/L
same,MFC,Candida albicans [9],64 mg/L
same,MFC,Candida albicans [10],> 64 mg/L
same,MFC,Candida albicans [11],> 64 mg/L
same,MFC,Candida albicans [12],> 64 mg/L
same,MFC,Candida albicans [13],> 64 mg/L
same,MFC,Candida albicans [14],32 mg/L
COc1cccc2c1C(=O)c1c(O)c3c(c(O)c1C2=O)C[C@@](O)(C(=O)CO)C[C@@H]3O[C@H]1C[C@H](N)[C@H](O)[C@H](C)O1 [DOXORUBICIN],IC50,[15],< 0.125 µM
Fc1ccc(C(Cn2ccnc2)[Se]C(Cn2ccnc2)c2ccc(F)cc2F)c(F)c1 (centres undefined),MIC,Candida albicans [1],2 mg/L
same,MIC,Candida albicans [2],4 mg/L
same,MIC,Nakaseomyces glabratus,64 mg/L
same,MIC,Candida parapsilosis,8 mg/L
same,MIC,Pichia kudriavzevii,32 mg/L
same,MIC,[Candida] zeylanoides,2 mg/L
same,MIC,Cryptococcus neoformans,16 mg/L
same,MIC,Aspergillus fumigatus,> 64 mg/L
same,MIC,Candida albicans [3],2 mg/L
same,MIC,Candida albicans [4],1 mg/L
same,MIC,Candida albicans [5],4 mg/L
same,MIC,Candida albicans [6],4 mg/L
same,MIC,Candida albicans [7],8 mg/L
same,MFC,Candida albicans [8],32 mg/L
same,MFC,Candida albicans [9],8 mg/L
same,MFC,Candida albicans [10],> 64 mg/L
same,MFC,Candida albicans [11],> 64 mg/L
same,MFC,Candida albicans [12],8 mg/L
same,MFC,Candida albicans [13],8 mg/L
same,MFC,Candida albicans [14],8 mg/L
same,MIC50,Candida albicans [16],1 mg/L
same,MIC80,Candida albicans [16],4 mg/L
same,MIC50,Candida albicans [17],1 mg/L
same,MIC80,Candida albicans [17],4 mg/L
same,MIC50,Candida albicans [18],4 mg/L
same,MIC80,Candida albicans [18],16 mg/L
same,MIC50,Candida albicans [19],1 mg/L
same,MIC80,Candida albicans [19],4 mg/L
same,MIC50,Candida albicans [20],0.25 mg/L
same,MIC80,Candida albicans [20],2 mg/L
same,MIC50,Candida albicans [21],1 mg/L
same,MIC80,Candida albicans [21],8 mg/L
same,MIC50,Candida albicans [22],2 mg/L
same,MIC80,Candida albicans [22],16 mg/L
same,MIC50,Candida albicans [23],4 mg/L
same,MIC80,Candida albicans [23],64 mg/L
same,IC50,[15],4.61 µM
same,IC50,[24],8.26 µM
same,IC50,[25],1.45 µM
same,half-life,[26],9.8 min
same,CLint scaled,[27],33.5 L/h/kg
Clc1ccc(C(Cn2ccnc2)[Se][Se]C(Cn2ccnc2)c2ccc(Cl)cc2)cc1 (centres undefined),MIC,Candida albicans [3],2 mg/L
same,MIC,Candida albicans [4],8 mg/L
same,MIC,Candida albicans [5],4 mg/L
same,MIC,Candida albicans [6],1 mg/L
same,MIC,Candida albicans [7],8 mg/L
same,MFC,Candida albicans [8],64 mg/L
same,MFC,Candida albicans [9],32 mg/L
same,MFC,Candida albicans [10],> 64 mg/L
same,MFC,Candida albicans [11],> 64 mg/L
same,MFC,Candida albicans [12],8 mg/L
same,MFC,Candida albicans [13],4 mg/L
same,MFC,Candida albicans [14],8 mg/L
same,MIC50,Candida albicans [16],0.5 mg/L
same,MIC80,Candida albicans [16],4 mg/L
same,MIC50,Candida albicans [17],0.5 mg/L
same,MIC80,Candida albicans [17],4 mg/L
same,MIC50,Candida albicans [18],0.5 mg/L
same,MIC80,Candida albicans [18],4 mg/L
same,MIC50,Candida albicans [19],0.5 mg/L
same,MIC80,Candida albicans [19],16 mg/L
same,MIC50,Candida albicans [20],0.5 mg/L
same,MIC80,Candida albicans [20],2 mg/L
same,MIC50,Candida albicans [21],0.5 mg/L
same,MIC80,Candida albicans [21],4 mg/L
same,MIC50,Candida albicans [22],2 mg/L
same,MIC80,Candida albicans [22],32 mg/L
same,MIC50,Candida albicans [23],32 mg/L
same,MIC80,Candida albicans [23],128 mg/L
same,IC50,[15],12.5 µM
same,IC50,[24],5.5 µM
same,IC50,[25],2.91 µM
same,half-life,[26],24.4 min
same,CLint scaled,[27],1.52 L/h/kg
Cc1ccc(C(Cn2ccnc2)[Se]C(Cn2ccnc2)c2ccc(C)cc2)cc1 (centres undefined),MIC,Candida albicans [1],4 mg/L
same,MIC,Candida albicans [2],4 mg/L
same,MIC,Nakaseomyces glabratus,16 mg/L
same,MIC,Candida parapsilosis,4 mg/L
same,MIC,Pichia kudriavzevii,16 mg/L
same,MIC,[Candida] zeylanoides,2 mg/L
same,MIC,Cryptococcus neoformans,32 mg/L
same,MIC,Aspergillus fumigatus,> 64 mg/L
same,MIC,Candida albicans [3],2 mg/L
same,MIC,Candida albicans [4],0.5 mg/L
same,MIC,Candida albicans [5],4 mg/L
same,MIC,Candida albicans [6],4 mg/L
same,MIC,Candida albicans [7],4 mg/L
same,MFC,Candida albicans [8],64 mg/L
same,MFC,Candida albicans [9],16 mg/L
same,MFC,Candida albicans [10],> 64 mg/L
same,MFC,Candida albicans [11],> 64 mg/L
same,MFC,Candida albicans [12],8 mg/L
same,MFC,Candida albicans [13],8 mg/L
same,MFC,Candida albicans [14],8 mg/L
same,MIC50,Candida albicans [16],1 mg/L
same,MIC80,Candida albicans [16],4 mg/L
same,MIC50,Candida albicans [17],1 mg/L
same,MIC80,Candida albicans [17],4 mg/L
same,MIC50,Candida albicans [18],1 mg/L
same,MIC80,Candida albicans [18],4 mg/L
same,MIC50,Candida albicans [19],2 mg/L
same,MIC80,Candida albicans [19],4 mg/L
same,MIC50,Candida albicans [20],1 mg/L
same,MIC80,Candida albicans [20],4 mg/L
same,MIC50,Candida albicans [21],2 mg/L
same,MIC80,Candida albicans [21],8 mg/L
same,MIC50,Candida albicans [22],2 mg/L
same,MIC80,Candida albicans [22],8 mg/L
same,MIC50,Candida albicans [23],4 mg/L
same,MIC80,Candida albicans [23],16 mg/L
same,IC50,[15],8.13 µM
same,IC50,[24],4.21 µM
same,IC50,[25],1.11 µM
Fc1ccc(C(Cn2ccnc2)[Se]C(Cn2ccnc2)c2ccc(F)cc2)cc1 (centres undefined),MIC,Candida albicans [1],2 mg/L
same,MIC,Candida albicans [2],4 mg/L
same,MIC,Nakaseomyces glabratus,64 mg/L
same,MIC,Candida parapsilosis,16 mg/L
same,MIC,Pichia kudriavzevii,32 mg/L
same,MIC,[Candida] zeylanoides,4 mg/L
same,MIC,Cryptococcus neoformans,64 mg/L
same,MIC,Aspergillus fumigatus,> 64 mg/L
same,MIC,Candida albicans [3],2 mg/L
same,MIC,Candida albicans [4],4 mg/L
same,MIC,Candida albicans [5],4 mg/L
same,MIC,Candida albicans [6],16 mg/L
same,MIC,Candida albicans [7],32 mg/L
same,MFC,Candida albicans [8],64 mg/L
same,MFC,Candida albicans [9],16 mg/L
same,MFC,Candida albicans [10],> 64 mg/L
same,MFC,Candida albicans [11],> 64 mg/L
same,MFC,Candida albicans [12],16 mg/L
same,MFC,Candida albicans [13],64 mg/L
same,MFC,Candida albicans [14],> 64 mg/L
